Values of other authors in patent publication US12427127B2 (priority 2018, dated 2025).

Structure (SMILES): O=NN(CCCl)C(=O)NCCCl [Carmustine, 1,3-bis (2-chloroethyl)-1-nitrosourea]
- Solubility in alcohol and lipids: highly soluble
- Solubility in water: poorly soluble
